Tests used:
[1] = In vitro metabolism in liver S9 fractions; assay type: in vitro ADME, mouse; details: phase I cofactors (NADPH regenerating system); 2 μM
Experimental: (§1) FIGS. 12A-D. NSN21778 in vitro metabolism stability, in vivo plasma pharmacokinetics, and side effect on body weight (Related to FIGS. 7A-G). (FIG. 12A) The metabolic stability of NSN21778 was evaluated in vitro after incubation with commercial liver S9 fractions in the presence of phase I (NADPH regenerating system) cofactors. Compound levels were determined by LC-MS/MS. Additionally, the stability of NSN21778 in the presence of commercial CD-1 mouse plasma was measured. (FIG. 12B) NSN21778 was dosed i.p. at 10 mg/kg to female CD-1 mice. Levels of NSN21778 in plasma and brain were evaluated by LC-MS/MS. (FIG. 12C) WTGFP, PS1KIGFP and APPKIGFP mice body weight after i.p. administrated with control solution or 10 mg/kg NSN21778 for 10 weeks. Data presented as mean±SE (n=5 mice). (FIG. 12D) Body weight gained for various treatments.
In vitro metabolism assays. Female ICR/CD-1 mouse S9 fractions were purchased from Celsis/In Vitro Technologies (Baltimore, Md.). 25 μl (0.5 mg) of S9 protein was added to a 15 ml glass screw cap tube. […] The supernatant was analyzed by LC-MS/MS. Stability in commercial mouse CD-1 plasma (Bioreclamation, Westbury, N.Y.) was measured in a similar fashion. […] Reactions were quenched with methanol as above and supernatants evaluated by LC-MS/MS. Compound half-life was determined by the method of substrate depletion as described (McNaney et al., 2008).

[2] = In vivo pharmacokinetics (plasma and brain); parameters: species or system mouse; details: i.p. 10 mg/kg, female CD-1 mice
Experimental: as §1, with “(FIG. 12D) Body weight gained for various treatments.” left out
In vivo pharmacokinetics. […] The supernatant was then analyzed by LC-MS/MS. […] The limit of quantitation (LOQ) was defined as the lowest concentration at which back calculation yielded a concentration within 20% of the theoretical value and above the LOD signal. […] Because the animals were not perfused prior to tissue isolation, to determine the final brain concentration of NSN21778, the amount of compound in brain due to brain vasculature was first subtracted using the calculated plasma concentrations of NSN21778 and a value of 30 μl of blood/g of brain tissue (Kwon, 2001).

[3] = test system: APPKIGFP and WTGFP mice; assay: Contextual fear conditioning test; assay type: in vivo, mouse; details: i.p. 10 mg/kg

## CC(=O)Nc1ccc(CCNc2ncnc3ccc(N)cc23)cc1 [NSN21778, N-{4-[2-(6-Amino-quinazolin-4-ylamino)-ethyl]-phenyl}-acetamide]
[1]
  metabolic stability in liver S9 fractions: generally stable
[2]
  brain penetration: poor
  levels in plasma: modest levels
[3]; 6.5 month-old APPKIGFP mice
  contextual fear conditioning phenotype: fully rescued
[3]; WTGFP mice, difference to control not statistically significant
  contextual fear conditioning responses: somewhat impaired responses
